From US5908868A, “Retinol derivatives useful for enhancing immune response” (priority 1995, dated 1999)

System: 5/2 cells
Assay type: in vitro ADME, human
Procedure: 5/2 cells (10^6 cells in 10 ml HB 101 medium) were incubated with all-trans-[^3 H] retinol (10 uCe/ml). After 24 hours, retinoids were extracted from the washed cell pellet and unlabeled marker retinoids were added. The crude extract was loaded on an analytical reversed-phase C-18 column. Retinoids were eluted with the shown linear gradient of water/methanol/chloroform. The flow rate was 0.5 ml/min. DPM were determined with an on line scintillation counter. Reference retinoids were the all-trans forms of 0: 3,4-didehydroretinoic acid, 1: all-trans-retinoic acid, 2: 3,4-didehydroretinol, 3: retinol, 4: retinyl linoleate, 5: retinyl oleate, 6: retinyl palmitate. Shaded area corresponds to P3. Cross-hatched area corresponds to P1.
Lymphoblastoid 5/2 cells grown in the presence of 10^-6 M retinol were spiked with ^3 H-labeled retinol. After 16 hours the cell pellet was delipidated according to the method of McLean et al. and separated on a reversed phase C-18 HPLC column (FIG. 7). […] Three peaks, P1, P2 and P3, could not be immediately identified. One peak eluting at 36-39 minutes (corresponding 83% methanol 7% water) provisionally called P3, but now known as 14HRR, was unusual because unlike P1 eluting at 31-34 minutes, its relative amount increased when the retinol concentration was lowered or when retinol was given to the cells bound to RBP. […]

SMILES: CC1=C(/C=C/C(C)=C/C=C/C(C)=C/CO)C(C)(C)CCC1 [retinol, all-trans retinol]
- retinoids identified after 3H-retinol: 13-cis retinol, all-trans retinol, and several retinyl esters were identified
- retinoids not detected after 3H-retinol: Retinoic acid, 3,4-didehydroretinol acid as well as 3,4-didehydroretinol were not detectable
